{"source": "patent US20240277716A1", "about": "“Suppressive T Cell Populations and Methods of Cancer Immunotherapy” (La Jolla Institute for Immunology, priority 2021, published 2024)", "key": {"[1]": {"system": "tumor-infiltrating TREG cells and CD8+ T cells in HNSCC tumor tissue", "assay": "Phase II trial: tumor RNA-seq, sorted CD8+ T cell RNA-seq and FOXP3 immunohistochemistry, pre- vs post-treatment", "type": "in vivo, human", "description": "Double blind, randomized clinical trial and sample collection. In order to explore the immunomodulatory effects of PI3Kδ inhibition in humans, the inventors conducted a multicenter, placebo-controlled phase II neoadjuvant trial with the PI3Kδi AMG319 in resectable HNSCC, www.clinicaltrialsregister.eu/ctr-search/trial/2014-004388-20/results). All patients have provided written informed consent for participation in the clinical trial. The inventors studied Human Papilloma Virus (HPV)-negative HNSCC, as this cancer type is more prevalent, and because patients with this cancer type have poorer outcomes when compared to HPV-positive HNSCC, likely due to overall lower tumor-infiltrating lymphocyte (TIL) infiltration^31-33. The clinical trial was sponsored by Cancer Research UK Center for Drug Development (CRUKD/15/004) and approved by the Southampton and South West Hampshire Research Ethics Board; the trial EudraCT number is 2014-004388-20. Detailed information about the trial design, randomization procedure, protocol amendments, recruitment data, patient characteristics and adverse events are deposited at www.clinicaltrialsregister.eu/ctr-search/trial/2014-004388-20/results #morelnformationSection and found in the CONSORT checklist. Patients were recruited after initial diagnosis and before definitive surgical treatment; drug treatment or placebo was given for up to 24 or 28 days respectively, prior to resection of tumor. […] The inventors reasoned that high-grade irAEs were unlikely to occur during the shorter treatment duration in the neoadjuvant setting, and therefore selected 400 mg/day as the starting dose. The intended time from initiating treatment with AMG319 or placebo to surgical resection of tumor was up to 4 weeks, with weekly blood draws. The full evaluation of radiological measurements has previously been reported at https://www.clinicaltrialsregister.eu/ctr-search/trial/2014-004388-20/results to the EU Clinical Trials Register in compliance with regulatory requirements. Primary endpoints were safety and assessment of CD8^+ immune infiltrates, secondary endpoints tumor responses and AMG319 pharmacokinetic evaluation (https://www.clinicaltrialsregister.eu/ctr-search/trial/2014-004388-20/results#endPointsSection). The sample size was calculated as follows: in a pilot cohort, the CD8 count in the biopsy taken at diagnosis, and in the resected tissue sample was quantified. The mean value at diagnosis was 25 cells/high power filed (hpf), and this remained almost the same in the resected sample (26 cells/hpf). […] To detect a standardized difference of 0.5 with 80% power and one-sided test of statistical significance of 20%, 36 patients were randomized to AMG319 and 18 to placebo (54 in total). Randomization was at the level of the individual patient, using block randomization with randomly varying block sizes. During the course of the clinical trial the randomization list was held by the unblinded Trial Statistician and within the IWRS. Patients and care providers were blinded to the treatment allocation, and all immunological evaluations were completed by a pathologist and researchers who were blinded to the patient allocation to treatment arms. […] Patients were eligible if they were >18 years, with histologically proven HNSCC for whom surgery was the primary treatment option, with laboratory results within specified ranges. […]"}, "circulating TREG cells": {"system": "circulating TREG cells", "assay": "Phase II trial: circulating TREG cells", "design": "species or system human", "conditions": "in vivo", "description": "Double blind, randomized clinical trial and sample collection. In order to explore the immunomodulatory effects of PI3Kδ inhibition in humans, the inventors conducted a multicenter, placebo-controlled phase II neoadjuvant trial with the PI3Kδi AMG319 in resectable HNSCC, www.clinicaltrialsregister.eu/ctr-search/trial/2014-004388-20/results). All patients have provided written informed consent for participation in the clinical trial. The inventors studied Human Papilloma Virus (HPV)-negative HNSCC, as this cancer type is more prevalent, and because patients with this cancer type have poorer outcomes when compared to HPV-positive HNSCC, likely due to overall lower tumor-infiltrating lymphocyte (TIL) infiltration^31-33. The clinical trial was sponsored by Cancer Research UK Center for Drug Development (CRUKD/15/004) and approved by the Southampton and South West Hampshire Research Ethics Board; the trial EudraCT number is 2014-004388-20. […] The sample size was calculated as follows: in a pilot cohort, the CD8 count in the biopsy taken at diagnosis, and in the resected tissue sample was quantified. […]"}, "[2]": {"system": "patients with resectable head and neck squamous cell carcinoma (HNSCC)", "type": "in vivo, human", "description": "PI3Kδ inhibition causes irAEs. To evaluate the potential for PI3Kδ inhibitors as immunotherapeutic agents in human solid cancers, the inventors administered the PI3Kδi AMG319 to treatment-naive patients with resectable head and neck squamous cell carcinoma (HNSCC) in a neoadjuvant, double-blind, placebo-controlled randomized phase II trial. The inventors measured target inhibition (pAKT levels in B cells and drug levels to verify drug administration. Thirty-three patients were randomized in a 2:1 ratio (AMG319:Placebo) to the trial and 30 patients received at least one dose of AMG319 or placebo. Fifteen patients received 400 mg daily of AMG319 (range of 7-24 days per patient). Unexpectedly, at the 400 mg dose, 9/15 patients experienced irAEs that lead to withdrawal of treatment. After a formal safety review, 6 additional patients were recruited and treated at a reduced dose of 300 mg per day. Again, 3/6 patients had irAEs that led to discontinuation of treatment. One patient experienced grade 4 colitis after completion of 24 daily doses of AMG319 and eventually required colectomy (FIG. 4A). The most prevalent irAEs were skin rashes (29%; 25% observed in the treatment group and 4% in placebo group), diarrhea (29%; 28% in observed treatment group and 1% in placebo group) and transaminitis (14% all in the treatment group), consistent with a treatment-mediated loss of TREG cells or TREG cell functionality in multiple tissues causing immunopathology.\nDouble blind, randomized clinical trial and sample collection. In order to explore the immunomodulatory effects of PI3Kδ inhibition in humans, the inventors conducted a multicenter, placebo-controlled phase II neoadjuvant trial with the PI3Kδi AMG319 in resectable HNSCC, www.clinicaltrialsregister.eu/ctr-search/trial/2014-004388-20/results). All patients have provided written informed consent for participation in the clinical trial. The inventors studied Human Papilloma Virus (HPV)-negative HNSCC, as this cancer type is more prevalent, and because patients with this cancer type have poorer outcomes when compared to HPV-positive HNSCC, likely due to overall lower tumor-infiltrating lymphocyte (TIL) infiltration^31-33. The clinical trial was sponsored by Cancer Research UK Center for Drug Development (CRUKD/15/004) and approved by the Southampton and South West Hampshire Research Ethics Board; the trial EudraCT number is 2014-004388-20. Detailed information about the trial design, randomization procedure, protocol amendments, recruitment data, patient characteristics and adverse events are deposited at www.clinicaltrialsregister.eu/ctr-search/trial/2014-004388-20/results #morelnformationSection and found in the CONSORT checklist. Patients were recruited after initial diagnosis and before definitive surgical treatment; drug treatment or placebo was given for up to 24 or 28 days respectively, prior to resection of tumor. […] The inventors reasoned that high-grade irAEs were unlikely to occur during the shorter treatment duration in the neoadjuvant setting, and therefore selected 400 mg/day as the starting dose. The intended time from initiating treatment with AMG319 or placebo to surgical resection of tumor was up to 4 weeks, with weekly blood draws. The full evaluation of radiological measurements has previously been reported at https://www.clinicaltrialsregister.eu/ctr-search/trial/2014-004388-20/results to the EU Clinical Trials Register in compliance with regulatory requirements. Primary endpoints were safety and assessment of CD8^+ immune infiltrates, secondary endpoints tumor responses and AMG319 pharmacokinetic evaluation (https://www.clinicaltrialsregister.eu/ctr-search/trial/2014-004388-20/results#endPointsSection). The sample size was calculated as follows: in a pilot cohort, the CD8 count in the biopsy taken at diagnosis, and in the resected tissue sample was quantified. […]"}, "[3]": {"system": "heavily-pretreated patients with either CLL or non-Hodgkin lymphoma", "conditions": "cited from earlier work"}}}
{"compound": "C[C@H](Nc1ncnc2[nH]cnc12)c1cc2ccc(F)cc2nc1-c1ccccn1", "note": "[AMG319]", "values": [{"measurement": "expression of IFNG, GZMB and PRF1 in sorted tumor-infiltrating CD8+ T cells", "setting": "[1]; post-treatment samples, bulk RNA-seq", "result": "higher expression"}, {"measurement": "differentially expressed genes, sorted CD8+ T cells", "setting": "[1]; post-treatment vs remaining samples", "result": 455, "unit": "genes"}, {"measurement": "FOXP3 transcript levels in the tumor samples", "setting": "[1]; pre- vs post-treatment", "result": "significant reduction"}, {"measurement": "differentially-expressed genes, whole tumor RNA-seq", "setting": "[1]; pre- vs post-treatment tumor samples", "result": 93, "unit": "DEGs"}, {"measurement": "intratumoral TREG cells (FOXP3+ cells, immunohistochemistry)", "setting": "[1]; short interval between stopping treatment and assessment", "result": "significantly reduced"}, {"measurement": "activated circulating TREG cells", "setting": "circulating TREG cells", "result": "significant increase"}, {"measurement": "difference in measured tumor volumes between the study arms", "setting": "[2]; 23 evaluable patients, AMG319 vs placebo", "result": "did not observe any significant differences"}, {"measurement": "patients with partial responses (PR)", "setting": "[2]; AMG319-treated, all also grade 3/4 irAEs", "result": "Two"}, {"measurement": "patients with complete pathological response", "setting": "[2]; AMG319-treated, also grade 3/4 irAEs", "result": "one"}, {"measurement": "diarrhea observed in the treatment group", "setting": "[2]; human, in vivo", "result": 28, "unit": "%"}, {"measurement": "median time to onset of irAEs", "setting": "[2]; human, in vivo", "result": 9, "unit": "days"}, {"measurement": "skin rashes observed in the treatment group", "setting": "[2]; human, in vivo", "result": 25, "unit": "%"}, {"measurement": "transaminitis", "setting": "[2]; human, in vivo", "result": 14, "unit": "%"}, {"measurement": "patients with grade 4 colitis, eventually required colectomy", "setting": "[2]; in vivo", "result": "One"}, {"measurement": "nodal regression", "setting": "[3]; daily dosing with 400 mg", "result": "> 50", "unit": "%"}, {"measurement": "target inhibition (BCR-induced pAKT in ex vivo IgD-stimulated CLL samples)", "setting": "[3]; daily dosing with 400 mg", "result": "near-complete target inhibition"}, {"measurement": "maximally-tolerated dose", "setting": "[3]; doses of up to 400 mg explored", "result": "without reaching a maximally-tolerated dose"}, {"measurement": "mean half-life in plasma", "setting": "[3]; human plasma", "result": "3.8 to 6.6", "unit": "h"}, {"measurement": "occurrence of irAE at grade 3 or above (CTC)", "setting": "[3]; in vivo", "result": "after days 40 and 60"}]}
